Assay results from EP0337167B1, “4-Aryl-4-piperidine (or pyrrolidine or hexahydroazepine) carbinols and heterocyclic analogs thereof” (THE DU PONT MERCK PHARMACEUTICAL COMPANY, priority 1988, dated 1989).
Read-outs that look alike come from different tables or passages of the source.

Experiments:
Male CF1 mice = test: Mouse antiphenylquinone writhing (PQW) test; type: in vivo; parameters: Mouse PQW ED50 (mg/kg): unit not given here; details: for Mouse PQW ED50 (mg/kg): Table 4, 3° carbinols within the scope of U.S. 4,485,109, head prints neither endpoint nor unit; for ED50: Mus musculus, 0.5 h, phenylquinone 1.25 mg/kg i.p., observation beginning 30 min after injection of test compound; for ED50 / Mouse PQW remark: Table 3; for Mouse PQW remark: remark beside S.C and P.O values
Experimental: The anti-pheylquinone writhing (PQW) test modified from the methods of Siegmund et al. (Proc. Soc. Exp. Biol. Med. 95: 729-731, 1957) and Blumberg et al. (Proc. Exp. Biol. Med. 118: 763-767, 1965) was used to assess analgesia in mice. Male CF1 mice (Charles River Breeding Laboratories, Wilmington, MA), fasted for 16-22 h and weighing 18-23 g, were injected with randomized and coded doses of test compounds, then challenged with 1.25 mg/kg i.p. phenyl-p-benzoquinone (phenylquinone) 5 min prior to the specified observation time. The phenylquinone solution (0.1 mg/ml in 5% aqueous ethanol) was prepared daily and stored in foil-wrapped amber bottles to limit degradation. Mice were observed 10 min for the presence or absence of the characteristic abdominal constriction and stretching response beginning 30 min after injection of the test compound. Analgetic activity was calculated as the percentage of mice failing to respond to the phenylquinone challenge dose. […] Median effective doses (ED50's) and 95% confidence limits were determined numerically by the methods of Thompson (Bacteriological Rev. 11: 115-145, 1947), and Litchfield and Wilcoxon (J. Pharmacol. Exp. Ther. 96: 99.113, 1949).
The data shown in Table show the PQW ED₅₀ values for the compounds of the aforesaid examples.
Table 4 illustrates that the 3° carbinols within the scope of U.S. 4,485,109 have utility as analgesic agents.

Male CF mice = test: Antagonism of tetrabenazine-induced depression (exploratory loss and ptosis) in mice; type: in vivo; details: Mus musculus, po, 1 h, orally, one hour post-drug, tetrabenazine methane sulfonate 52 mg/kg i.p., read-out: Oral ED₅₀ (mg/kg) for Prevention of Ptosis
Description: The prevention of tetrabenazine-induced sedation and depression in mice is a standard procedure used to detect and compare antidepressant compounds. The activity of antidepressant compounds in this procedure correlates well with human efficacy. (Barnett, et al., Int. J. Neuropharmac. 8: 73-79, 1969, and Vernier, et al., "The Pharmacodynamics of Amitriptyline" in Psychsomatic Medicine (Nodine & Moyer, editors) pp. 683-690, 1962).
Male CF mice (Charles River Breeding Laboratories, Wilmingon, MA), fasted for 16-22 hours and weighing 18-25 g, were injected with randomized and coded does of test compounds, then challenged with 52 mg/kg i.p. tetrabenazine methane sulfonate 30 minutes prior to the specified observation time. The tetrabenazine methane sulfonate solution (5.2 mg/ml in distilled water) was prepared daily and stored in foil-wrapped amber bottles to limit degradation. […] Exploratory loss was defined as failing to move to the perimeter of a 12.7 cm (5 inch) (12.7 cm) circle within 15 seconds of being placed at the center of the circle. Ptosis was defined as both eyelids closed 50% or more compared to normal. Antidepressant activity was calculated as the percentage of mice failing to respond to the tetrabenazine challenge dose. […] Median effective does (ED₅₀'s) were estimated using the Moving Average method of Thompson (Bacteriological Rev. 11: 115-145, 1947).
The data in Table 5 show ED₅₀ values for the compounds of the aforesaid examples.

[1] = literature statement (A. L. Morrison et al., J.Chem. Soc., 1467, 1950); cited from earlier work
[2] = po, p.o., read-out: Mouse PQW ED₅₀ (Mg/Kg) P.O
[3] = sc, s.c., read-out: Mouse PQW ED₅₀ (Mg/Kg) S.C

CCC(C)(O)C1(c2cccc(C(F)(F)F)c2)CCN(C)CC1 (stereo not drawn) [V]
Mouse PQW ED50 (mg/kg) (Male CF1 mice; p.o.): 23.0

CCN1CCC(c2cccc(Cl)c2)(C(C)O)CC1 (stereo not drawn) [Example 2, 4-(3'-Chlorophenyl)-1-ethyl-α-methyl-4-piperidinemethanol]
ED50 (Male CF1 mice; [2]): > 81 mg/kg
ED50 (Male CF1 mice; [3]): 62 mg/kg

CCCCC(O)C1(c2cccc(Cl)c2)CCN(C)CC1 (stereo not drawn) [Example 37]
ED50 (Male CF1 mice; [2]): > 81 mg/kg
ED50 (Male CF1 mice; [3]): 48 mg/kg

Cc1ccccc1C1(C(C)O)CCN(C)CC1 (stereo not drawn) [Example 12]
ED50 (Male CF1 mice; [2]): > 81 mg/kg
ED50 (Male CF1 mice; [3]): > 81 mg/kg
Mouse PQW remark (Male CF1 mice): Inactive
ED50 (Male CF mice): 1.03 mg/kg

CN1CCC(c2ccsc2)(C(C)(C)O)CC1 [Example 44]
ED50 (Male CF1 mice; [2]): 24 mg/kg
ED50 (Male CF1 mice; [3]): 6.5 mg/kg

CC(O)C1(c2cccc(Cl)c2)CCCN(C)CC1 (stereo not drawn) [Example 71, 4-(3'-Chlorophenyl)-α,1-dimethyl-2,3,4,5,6,7-hexahydro-1H-azepine-4-methanol]
ED50 (Male CF1 mice; [2]): 16 mg/kg
ED50 (Male CF1 mice; [3]): 8.1 mg/kg

Cc1ccc(C2(C(C)(C)O)CCN(C)CC2)s1 [LL]
Mouse PQW ED50 (mg/kg) (Male CF1 mice; p.o.): 36.0
Mouse PQW ED50 (mg/kg) (Male CF1 mice; s.c.): 9.0

CC(O)C1(c2ccc(F)cc2)CCN(C)CC1 (stereo not drawn) [Example 6]
ED50 (Male CF1 mice; [2]): > 81 mg/kg
ED50 (Male CF1 mice; [3]): 54 mg/kg

CC(O)C1(c2ccc(Cl)c(Cl)c2)CCN(C)CC1 (stereo not drawn) [Example 9]
ED50 (Male CF1 mice; [2]): 32 mg/kg
ED50 (Male CF1 mice; [3]): > 81 mg/kg

CC(O)C1(c2ccc(Cl)cc2)CCN(C)CC1 (stereo not drawn) [Example 8]
ED50 (Male CF1 mice; [2]): > 81 mg/kg
ED50 (Male CF1 mice; [3]): 30 mg/kg

CC(O)C1(c2cccs2)CCN(C)CC1 (stereo not drawn) [Example 26, 4-(2-Thienyl)-α,1-dimethylpiperidinemethanol]
ED50 (Male CF1 mice; [2]): 19 mg/kg
ED50 (Male CF1 mice; [3]): 13 mg/kg

CC(O)C1(c2csc3ccccc23)CCN(C)CC1 (stereo not drawn) [Example 29]
ED50 (Male CF1 mice; [2]): 47 mg/kg
ED50 (Male CF1 mice; [3]): 6.8 mg/kg

CC(O)C1(c2ccc3ccccc3c2)CCN(C)CC1 (stereo not drawn) [Example 25]
ED50 (Male CF1 mice; [2]): > 81 mg/kg
ED50 (Male CF1 mice; [3]): 16 mg/kg

CC1CCC(O)(C2(c3cccc(C(F)(F)F)c3)CCN(C)CC2)C1 (stereo not drawn) [Y]
Mouse PQW ED50 (mg/kg) (Male CF1 mice; p.o.): 25.0

CSc1ccc(C2(C(C)(C)O)CCN(C)CC2)cc1 [II]
Mouse PQW ED50 (mg/kg) (Male CF1 mice; p.o.): 59.0

CN1CCC(c2cccs2)(C(C)(C)O)CC1 [Example 43]
ED50 (Male CF1 mice; [2]): 36 mg/kg
ED50 (Male CF1 mice; [3]): 13 mg/kg

CCOc1cccc(C2(C(C)(C)O)CCN(C)CC2)c1 [HH]
Mouse PQW ED50 (mg/kg) (Male CF1 mice; p.o.): 32.0
Mouse PQW ED50 (mg/kg) (Male CF1 mice; s.c.): 9.0

CC(O)C1(c2ccsc2)CCN(C)CC1 (stereo not drawn) [Example 27, 4-(3-Thienyl)-α,1-dimethylpiperidinemethanol]
ED50 (Male CF1 mice; [2]): 16 mg/kg
ED50 (Male CF1 mice; [3]): 13 mg/kg

CC(=O)OC(C)(C)C1(c2cccc(Cl)c2)CCN(C)CC1 [Example 67, 4-(3'-Chlorophenyl)-α,α,1-trimethyl-4-piperidinemethanol Acetate]
ED50 (Male CF1 mice; [2]): 5.2 mg/kg
ED50 (Male CF1 mice; [3]): 1.8 mg/kg

CC(O)C1(c2cccc(Br)c2)CCN(C)CC1 (stereo not drawn) [Example 10, 4-(3'-Bromophenyl)-α,1-dimethylpiperidinemethanol]
ED50 (Male CF1 mice; [2]): 16 mg/kg
ED50 (Male CF1 mice; [3]): 6.5 mg/kg

CN1CCC(c2ccccn2)(C(C)(C)O)CC1 [Example 46, reference compound]
ED50 (Male CF1 mice; [2]): > 81 mg/kg
ED50 (Male CF1 mice; [3]): > 81 mg/kg
Mouse PQW remark (Male CF1 mice): Inactive

CN1CCC(c2cccc(C(F)(F)F)c2)(C2(O)CCCC2)CC1 [W]
Mouse PQW ED50 (mg/kg) (Male CF1 mice; p.o.): 12.0
Mouse PQW ED50 (mg/kg) (Male CF1 mice; s.c.): 16.0

Cc1ccc(C2(C(C)O)CCN(C)CC2)cc1 (stereo not drawn) [Example 14]
ED50 (Male CF1 mice; [2]): > 81 mg/kg
ED50 (Male CF1 mice; [3]): 54 mg/kg

COc1cccc(C2(C3(O)CCCC3)CCN(C)CC2)c1 [FF]
Mouse PQW ED50 (mg/kg) (Male CF1 mice; p.o.): 47.0
Mouse PQW ED50 (mg/kg) (Male CF1 mice; s.c.): 16.0

CC(OCc1ccccc1)C1(c2cccc(Cl)c2)CCN(C)CC1 (stereo not drawn) [Example 69]
ED50 (Male CF1 mice; [2]): > 81 mg/kg
ED50 (Male CF1 mice; [3]): 62 mg/kg

CCC(O)C1(c2ccccc2)CCN(C)CC1 (stereo not drawn) [4-phenyl-1-methyl-4-(1-hydroxypropyl)piperidine, reference compound]
analgesic activity compared with the parent ketones [1]: much less active as analgesics than the parent ketones
